Source: ChEMBL document CHEMBL1201862, “PubChem BioAssay data set” (2004)
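Results reflect a 48-hour exposure of cells in 96-well plates to compound at five concentrations. GI50: concentration for 50% inhibition of growth.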 Active and inactive are the calls of the source. No stated cut-off is given here; in the data, active = GI50 up to about 1.1 µM and inactive = higher.

What was measured:
Assay in all cases: NCI anticancer screen, dose series, 48 h
OVCAR-3 = test system: OVCAR-3
NCI-H522 = test system: NCI-H522
HOP-92 = test system: HOP-92
SK-MEL-2 = test system: SK-MEL-2
DU-145 = test system: DU-145
CCRF-CEM = test system: CCRF-CEM
PC-3 = test system: PC-3
HCC 2998 = test system: HCC 2998
UACC-62 = test system: UACC-62
MDA-MB-435 = test system: MDA-MB-435
T47D = test system: T47D
EKVX = test system: EKVX
SF-295 = test system: SF-295
A549 = test system: A549
HT-29 = test system: HT-29
SF-539 = test system: SF-539
SK-OV-3 = test system: SK-OV-3
MDA-MB-231 = test system: MDA-MB-231
IGROV-1 = test system: IGROV-1
UO-31 = test system: UO-31

Measured: GI50

CCN1c2ccccc2NC(=S)c2c(-c3ccccc3)n[nH]c21
inactive: OVCAR-3 53.3 µM | NCI-H522 21 µM | HOP-92 43.8 µM | SK-MEL-2 25.3 µM | DU-145 39.9 µM | CCRF-CEM 18.3 µM | PC-3 25.6 µM | HCC 2998 3.99 µM | UACC-62 27.3 µM | MDA-MB-435 18.4 µM | T47D 17.9 µM | EKVX 21 µM | SF-295 27.4 µM | A549 24.8 µM | HT-29 42.7 µM | SF-539 39.4 µM | SK-OV-3 34 µM | MDA-MB-231 19.3 µM | IGROV-1 34.1 µM

O=S(=O)(c1ccccc1)C1CC(c2nc3ccccc3[nH]2)=NO1 (centres undefined)
inactive: OVCAR-3 89.9 µM | NCI-H522 28.6 µM | HOP-92 80.4 µM | SK-MEL-2 > 100 µM | DU-145 > 100 µM | CCRF-CEM 21.8 µM | PC-3 > 100 µM | HCC 2998 > 100 µM | UACC-62 > 100 µM | MDA-MB-435 72.3 µM | T47D > 100 µM | EKVX 84.9 µM | UO-31 > 100 µM | SF-295 > 100 µM | A549 > 100 µM | HT-29 > 100 µM | SF-539 51.4 µM | SK-OV-3 > 100 µM | MDA-MB-231 > 100 µM | IGROV-1 16.6 µM
